According to patent US7510825B2, “Kits and methods for detection of apoptotic cells” (NST NeuroSurvival Technologies Ltd, priority 2000, dated 2009):

Tested on: Jurkat cells (T-cell leukemia, human)
Experiment: Binding of DDC and PI to Jurkat cells treated with anti-Fas antibody, FACS
Assay type: cell-based
Details: anti-Fas antibody 0.1 μg/ml for 180 minutes
Experimental: a. Non Adherent Cells • 1. Inducing cells to undergo apoptosis. A negative control should be prepared by incubating cells in the absence of apoptosis induction agent. • 2. Washing the cells and adjusting the number of cells to 1×10^7/ml in PBS. • 3. Transferring 30 μl from the cell suspension to a suitable test tube for FACS analysis. • 4. Adding 260 μl of PBS and 5 μl of DDC to the tube and incubating for 15 minutes at room temperature (RT), protected from light. • 5. Adding 5 μl of Propidium Iodide (PI) and perform FACS analysis.
Analyzing DDC accumulation by flow cytometry using FACS apparatus that includes a UV laser. For DDC analysis: the UV detector excitation is at 356 nm and the emission is at 530 nm with a band pass of […]. […] The population should be separated into three groups: live cells will show a low level of fluorescence (background), apoptotic cells will show higher UV fluorescence and necrotic cells will show both red and higher UV fluorescence.
Jurkat cells (T-cell leukemia, human) were treated with anti-Fas antibody (0.1 μg/ml) for 180 minutes, Following incubation the cells were washed and stained with DDC (as detailed in DDC protocols, IIIA). […] Following incubation with anti-Fas antibody, most of the cells shifted to the lower right section (AII, EA) of higher fluorescence value, indicating increased staining with DDC. […]

CN(C)c1cccc2c(S(=O)(=O)NC(CSSCC(NS(=O)(=O)c3cccc4c(N(C)C)cccc34)C(=O)O)C(=O)O)cccc12 (stereo not shown) [DDC]
fluorescence (DDC accumulation) of treated versus control cells: marked shift of fluorescence
